Assay results published in PubChem BioAssay AID2305 (GlaxoSmithKline (GSK), 2010).

system: P. falciparum 3D7 growth, pLDH absorbance; experiment: P. falciparum 3D7 growth inhibition, dose response, strain 3D7 (AID 2305)

Compound | IC50
CCS(=O)(=O)c1ccc(OC)c(Nc2nccc(-c3c(-c4cccc(NC(=O)c5c(F)cccc5F)c4)nn4ncccc34)n2)c1 | 1030 nM
Cc1nc2ccccc2n1C1C[C@H]2CC[C@@H](C1)N2CCCC1(c2ccccc2)CCN(C(=O)OCc2ccccc2)CC1 (stereo not given in full) | 1000 nM
CC(=O)NCCCCC1NC2(C(=O)N(Cc3ccc(C(C)(C)C)cc3)c3ccccc32)C2C(=O)N(C3CCCCC3)C(=O)C12 (stereo not given) | 790 nM
Cc1ccc2nc(-c3cc(-c4ccc(CO)cc4)cnc3N)[nH]c2c1 | 860 nM
Nc1c2ccccc2nc2cc([N+](=O)[O-])ccc12 | 870 nM
CCCCC([C@@H](Cc1ccc2ccccc2c1)C(=O)N[C@H](C(=O)NC)C(C)(C)C)N(O)C=O (stereo not given in full) | 140 nM
CNC(=O)NC1CCN(Cc2c(-c3cccs3)nc3ccccc3c2C(=O)N[C@@H](C)C2CCCCC2)CC1 | 220 nM
CCN(CC)CCCCNc1cc(-c2[nH]c(C(C)(C)C)nc2-c2ccc3cc(OC)ccc3c2)ccn1 | 530 nM
COc1ccc(C(=O)N2CCC3(CC2)C(=O)N(CC(=O)NC2CCCCC2)CN3c2ccccc2)c(OC)c1 | 220 nM
CCOc1ccc(C(=O)Nc2cc(Br)c3c(c2)CNCC3)cc1C#N | 760 nM
CC(C)NCc1cccc(-c2ccc(NS(=O)(=O)c3cccc4cccnc34)cc2)c1 | 1080 nM
N#Cc1ccc(-c2ccc3nc(N4CCCN(C5CCC5)CC4)ccc3c2)cc1 | 1500 nM
CN1CCN(CCCN(Cc2ccc(-c3cccc(CNCc4ccc5c(c4)OCO5)c3)cc2)C(=O)Nc2ccccc2)CC1 | 180 nM
O=C(Nc1ccc(C(F)(F)F)cc1)c1ccc(S(=O)(=O)NCC2CCCN(CC3CCCCC3)C2)cc1 (stereo not given) | 150 nM
COc1ccc2nccc(NN=Cc3ccccc3Cl)c2c1 | 660 nM
Cc1[nH]c(C)c(-c2ccc(Oc3ccc(F)cc3)cc2)c(=O)c1Cl | 50 nM
COc1ccc(CC(=O)Nc2ccc(Nc3nc(C)cc(N4CCCC4)n3)cc2)cc1 | 1110 nM
Cc1ccoc1C(=O)Nc1cccc(-c2cccc(-c3nc4ccccc4[nH]3)c2)c1 | 1220 nM
O=C(Nc1ccc(Cl)c(C(F)(F)F)c1)N[C@H]1CCN(CCCCCNC(=O)[C@@H]2C[C@H]2c2ccc(Cl)c(Cl)c2)C1 | 1080 nM
NCc1ccc(-c2ccc3c(N)nccc3c2)cc1 | 890 nM
O=C(Nc1ccc2oc(-c3ccc(Br)cc3)nc2c1)c1ccc([N+](=O)[O-])o1 | 970 nM
O=C(Nc1cccc(CN2CCCN(Cc3ncc[nH]3)CC2)c1)c1ccc(Cl)c(Cl)c1 | 800 nM
Oc1ccc(-c2nc3c4cc(I)ccc4c4ccc(I)cc4c3[nH]2)cc1 | 970 nM
N#Cc1ccc(-c2ccc(C(=O)NCCCCN3CCC(c4cn(CCO)c5ccccc45)CC3)cc2)cc1 | 950 nM

Compound | IC50
CCc1nnc2sc(-c3cccc(NC(=O)c4ccc(C)c([N+](=O)[O-])c4)c3)nn12 | 1410 nM
O=C(/C=C/c1ccc(Cl)c(Cl)c1)NCCCCCN1CCC(NC(=S)Nc2ccc(F)cc2F)CC1 | 810 nM
CC[C@H](NC(=O)c1c(CCCN2CCN(c3ccccc3)CC2)c(-c2ccccc2)nc2cc(O)ccc12)c1ccccc1 | 780 nM
N=C1c2ccccc2CN1CC(=O)c1ccc(Cl)c(Cl)c1 | 730 nM
O=C(/C=C/c1ccc(Cl)c(Cl)c1)NCCCCCN1CCCN(C(=O)Nc2ccc(F)c(F)c2)CC1 | 800 nM
O=[N+]([O-])c1ccc(-n2nc(-c3cccnc3)n(Cc3ccco3)c2=S)c(Cl)c1 | 200 nM
Cc1cc(-c2c[nH]c3ncc(-c4cccc5ncccc45)cc23)ccc1C(=O)O | 760 nM
NC(N)=NC(=O)Nc1cc(Cl)c(F)c(Cl)c1 | 640 nM
COc1ccc(C2CC(=O)C3=C(C2)NC(C)=C(C(=O)OC(C)C)C3c2ccc(O)cc2)cc1OC (stereo not given) | 280 nM
CCCC1N=C(N)N=C(N)N1c1cccc([N+](=O)[O-])c1 (stereo not given) | 760 nM
CCCNC(=O)C1CCN(C(c2ccccc2)c2ccc(Cl)c(Cl)c2)CC1 (stereo not given) | 710 nM
NC1=NC(c2ccccc2)(c2ccccn2)C(=O)N1CCCc1ccccc1 (stereo not given) | 1040 nM
CCc1ccc(-c2nc3cc(NC(=O)c4ccc([N+](=O)[O-])o4)ccc3o2)cc1 | 250 nM
COc1ccc(C(=O)CCC(=O)N(CCC2CCCN2C)Cc2ccc(-c3ccc(CNCCc4ccc(S(C)(=O)=O)cc4)cn3)cc2)cc1F (stereo not given) | 870 nM
CS(=O)(=O)c1ccc(CCNCc2ccc(-c3ccc(CN(C(=O)C4CC(=O)c5ccccc54)C4CCN(Cc5ccccc5)CC4)cc3)nc2)cc1 (stereo not given) | 590 nM
O=C1OC(c2ccccc2)(c2ccccc2)CN1C1CCN(Cc2ccc(O)c(Cl)c2)C1 (stereo not given) | 960 nM
Cc1cc(C2CCN(CCCCNC(=O)c3ccc(NC(=O)c4ccc(Cl)cc4)cc3)CC2)c(C)cc1OCc1ccncc1 | 500 nM
COc1cccc(CC(=O)N2CCC(n3c(C)nc4ccc(C)cc43)CC2)c1 | 110 nM
Cc1c(C(=O)N2CCCC(C(F)(F)F)C2)sc2cccc(F)c12 (stereo not given) | 600 nM
CC1=C(C(=O)Nc2cc3cn[nH]c3cc2F)C(c2cccc(NS(C)(=O)=O)c2)CC(=O)N1 (stereo not given) | 430 nM
O=C(Nc1cccnc1)c1ccc(-c2cc3ccncc3cc2OC2CCNCC2)s1 | 880 nM
O=C(Nc1ccc(-c2cncc(NCCCN3CCCC3)c2)cc1)c1ccccc1 | 940 nM
CN(C)CCc1coc2ccc(C(=O)Nc3ccc(-c4ccc(O)cc4)cc3)cc12 | 1080 nM
CC(C)(CNCc1cccc(Oc2cccc(C(F)(F)F)c2)c1)c1nc(-c2ccc(Cl)c(O)c2)c(-c2ccnc(N)n2)[nH]1 | 190 nM

Compound | IC50
Cc1cccc2[nH]c(-c3ccc(-c4ccc(NC(=O)c5cncn5C)cc4)s3)nc12 | 670 nM
Cn1c(NC(=O)C2CCC(CNC(=O)c3ccc(O)c(-c4ccc(Cl)c(Cl)c4)c3)CC2)nc2ccccc21 (stereo not given) | 650 nM
CCCCc1ccc(NC(=O)Nc2cccc(CCNCc3ccccc3)c2)cc1 | 880 nM
NC1CCCN(Cc2ccc(-c3ccc(-c4nc5ccccc5[nH]4)s3)cc2)C1 (stereo not given) | 670 nM
CCOC(=O)CNCC(=O)c1ccc(OCc2ccccc2)cc1 | 160 nM
Cc1ccc2c(c1)c(C1CCN(C(=O)c3ccc([N+](=O)[O-])o3)CC1)cn2C | 750 nM
NCC1CCCN1Cc1ccc(-c2ccc(-c3nc4ccccc4[nH]3)s2)cc1 (stereo not given) | 930 nM
COc1cc(Cc2cnc(N)nc2N)cc(OC(C)C)c1OC | 1040 nM
CN(c1ccc2c(c1)nc(Nc1cc(C(C)(C)C)on1)n2C)c1ccnc(Nc2ccc(CS(C)(=O)=O)cc2)n1 | 900 nM
O=C(NC1CCN(c2ccnc3cc(Cl)ccc23)C1)c1ccccc1F (stereo not given) | 970 nM
O=C(Nc1ccccc1F)NC1CCN(c2ccnc(Nc3ccc(F)cc3)n2)CC1 | 750 nM
COc1cc2c(C3CCN(CC4CCN(C(=O)/C=C/c5ccc(Cl)c(Cl)c5)CC4)CC3)c[nH]c2cn1 | 730 nM
Cc1cc(NCCC(=O)NCCc2ccccc2)nc(NCCc2ccc(F)cc2)n1 | 1080 nM
Nc1ccc2[nH]cc(C3CCN(CCC4CCN(C(=O)/C=C/c5ccc(Cl)c(Cl)c5)CC4)CC3)c2n1 | 740 nM
COc1ccc(C(C(=O)NC2CCN(C[C@H](O)c3ccnc4ccc(OC)cc34)CC2)N2CCN(c3ccc(Cl)c(Cl)c3)CC2)cc1 (stereo not given in full) | 200 nM
O=C(CCc1cnc[nH]1)Nc1cccc(-c2cccc(-c3nc4ccccc4[nH]3)c2)c1 | 660 nM
CN1CCCc2ccc(NC(=O)Nc3ccc(-c4ccccc4)cc3)cc2C1 | 380 nM
CC1(C)CN(CCC2CCC(NC(=O)/C=C/c3ccc(F)cc3F)CC2)Cc2ccc(C#N)cc21 (stereo not given) | 790 nM
O=C(Cc1cnc[nH]1)Nc1ccc(-c2cccc(-c3nc4ccc(C(F)(F)F)cc4[nH]3)c2)cc1 | 740 nM
COc1ccc(C2CC(=O)C3=C(C2)NC(C)=C(C(=O)OC2CCCC2)C3c2cccc(O)c2)cc1 (stereo not given) | 1010 nM
Cc1cc(NCCCN2CCCC2=O)n2c(nc3ccccc32)c1C#N | 860 nM
CCCCCCCN1CC[C@H](NC(=O)Nc2ccnc3ccc(OC)cc23)[C@H](C(=O)OCC)C1 | 430 nM
CCN(CC)C(=O)C1CCCN(c2cc(C)nc(Nc3ccc(Cl)cc3)n2)C1 (stereo not given) | 720 nM
CCCc1cc(Cc2cnc(N)nc2N)cc(CCC)c1OC | 890 nM

Compound | IC50
O=C(Nc1cccc(-c2nn3ccccc3c2-c2ccnc(Nc3cccc(-c4cnco4)c3)n2)c1)C1CCCCC1 | 260 nM
COc1ccc(C2CCN(CCCCNC(=O)c3ccc(NC(=O)c4ccc(Cl)cc4)cc3)CC2)c(OC)c1 | 570 nM
Cc1cc(N[C@@H](C)C(=O)Nc2ccccc2)nc(NCCc2ccc(F)cc2)n1 | 1110 nM
CC(C)C1=C[C@H]2C[C@]3(C4OCCO4)[C@@H]4CC[C@@H](C)[C@H]4C[C@@]2(C(=O)OCC2COCO2)[C@]13C(=O)OC(c1ccccc1)c1ccccc1 (stereo not given in full) | 850 nM
O=C1C(c2ccccc2)=C(Nc2ccc(Cl)cc2)c2ccccc21 | 610 nM
CCOc1cc(C(=O)N[C@@H](Cc2ccccc2)[C@H](O)CNCc2cc(OC)cc(OC)c2)cc(N2CCCS2(=O)=O)c1 | 750 nM
Cc1[nH]c(C)c(-c2ccc(OCc3ccccc3C(F)(F)F)nc2)c(=O)c1Br | 20 nM
COc1cc2c(c(Cl)c1OC)CCN(C(=O)C(F)(F)F)CC2c1ccccc1 (stereo not given) | 440 nM
Cc1cc(NCC(c2ccccc2)c2ccccc2)nc(NCC2CCCCC2)n1 | 510 nM
COc1cccc(CN2CCCC(COC(c3ccc(F)cc3)c3ccc(F)cc3)C2)c1O (stereo not given) | 330 nM
COc1ccc2oc(=O)c(C#N)c(O)c2c1 | 210 nM
Cc1cc(CN2CCC(Nc3ncc(-c4ccsc4)c4nc(C(F)(F)F)ccc34)CC2)no1 | 1100 nM
O=C(C=Cc1ccc(F)c(Br)c1)N1CCC(CN2CCC(c3c[nH]c4ccccc34)CC2)CC1 | 750 nM
N#Cc1ccc(N(CCOc2ccc3c(c2)CCC(=O)N3)Cc2ccccc2C(F)(F)F)cc1C(F)(F)F | 760 nM
CCc1cn2c3c(cc(C(=O)N[C@@H](Cc4ccccc4)[C@H](O)CNC4CCOCC4)cc13)N(CC(F)(F)F)S(=O)(=O)CC2 | 30 nM
CCOc1cc(C(=O)NCCN(CC)c2cccc(C)c2)ccc1-c1nc2ccc(Cl)cc2[nH]1 | 810 nM
CC(C)N=C(N)NN=Cc1ccc(Cl)c(Cl)c1 | 530 nM
CC(=O)c1ccc(NC(=O)Nc2ccc(N(C)c3ccnc(NC4CC4)n3)cc2)cc1 | 800 nM
O=c1cc(NCCCNC2CCOc3c(I)cc(Cl)cc32)[nH]c2ccccc12 (stereo not given) | 830 nM
COc1cc2nc(Cl)nc(Nc3ccncc3)c2cc1OC | 1210 nM
Nc1ncc(-c2ccc(S(=O)(=O)Nc3ccc(C(=O)N[C@@H](CCC(=O)O)C(=O)O)cc3)cc2)c(=O)[nH]1 | 800 nM
COc1ccc(-c2ccc(NC(=O)c3cccc(F)c3)cc2)cc1CN1CCCN(C)CC1 | 670 nM
CCOC(=O)NC1=NC(C)(C)N(OCc2ccc(Cl)c(Cl)c2)C(NC(=O)OCC)=N1 | 280 nM
